± gives the expanded uncertainty stated by the source.
Test: xn = mol fraction of the nth substance listed
Settings: 100 kPa, Liquid; for mass density: Vibrating tube method; for viscosity: Falling or rolling sphere viscometry

OCC1CC1 [cyclopropylmethanol] + CCCCCCCCCCCC
Settings | mass density [kg/m3] | viscosity [mPa·s]
318.15 K, x1 = 0.1135 | 736.06 ± 1 | –
318.15 K, x1 = 0.2127 | 742.4 ± 1 | –
318.15 K, x1 = 0.3059 | 749.51 ± 1 | –
318.15 K, x1 = 0.3804 | 756.13 ± 1 | –
318.15 K, x1 = 0.5067 | 769.82 ± 1 | –
318.15 K, x1 = 0.6019 | 782.78 ± 1 | –
318.15 K, x1 = 0.7011 | 799.61 ± 1 | –
318.15 K, x1 = 0.7921 | 819.33 ± 1 | –
318.15 K, x1 = 0.8991 | 850.32 ± 1 | –
318.15 K, x1 = 1 | 892.38 ± 1 | –
323.15 K, x1 = 0.1039 | – | 0.909 ± 0.019
323.15 K, x1 = 0.1135 | 732.26 ± 1 | –
323.15 K, x1 = 0.2032 | – | 0.927 ± 0.02
323.15 K, x1 = 0.2127 | 738.54 ± 1 | –
323.15 K, x1 = 0.3022 | – | 0.952 ± 0.02
323.15 K, x1 = 0.3059 | 745.6 ± 1 | –
323.15 K, x1 = 0.3804 | 752.18 ± 1 | –
323.15 K, x1 = 0.3997 | – | 0.979 ± 0.021
323.15 K, x1 = 0.4993 | – | 1.052 ± 0.022
323.15 K, x1 = 0.5067 | 765.79 ± 1 | –
323.15 K, x1 = 0.5994 | – | 1.125 ± 0.024
323.15 K, x1 = 0.6019 | 778.71 ± 1 | –
323.15 K, x1 = 0.7 | – | 1.22 ± 0.026
323.15 K, x1 = 0.7011 | 795.48 ± 1 | –
323.15 K, x1 = 0.7921 | 815.17 ± 1 | –
323.15 K, x1 = 0.797 | – | 1.346 ± 0.029
323.15 K, x1 = 0.8991 | 846.12 ± 1 | –
323.15 K, x1 = 0.9004 | – | 1.546 ± 0.033
323.15 K, x1 = 1 | 888.13 ± 1 | 1.843 ± 0.04
328.15 K, x1 = 0.1039 | – | 0.849 ± 0.018
328.15 K, x1 = 0.1135 | 728.45 ± 1 | –
328.15 K, x1 = 0.2032 | – | 0.864 ± 0.018
328.15 K, x1 = 0.2127 | 734.66 ± 1 | –
328.15 K, x1 = 0.3022 | – | 0.884 ± 0.019
328.15 K, x1 = 0.3059 | 741.65 ± 1 | –
328.15 K, x1 = 0.3804 | 748.19 ± 1 | –
328.15 K, x1 = 0.3997 | – | 0.907 ± 0.019
328.15 K, x1 = 0.4993 | – | 0.969 ± 0.021
328.15 K, x1 = 0.5067 | 761.73 ± 1 | –
328.15 K, x1 = 0.5994 | – | 1.031 ± 0.022
328.15 K, x1 = 0.6019 | 774.6 ± 1 | –
328.15 K, x1 = 0.7 | – | 1.112 ± 0.024
328.15 K, x1 = 0.7011 | 791.32 ± 1 | –
328.15 K, x1 = 0.7921 | 810.96 ± 1 | –
328.15 K, x1 = 0.797 | – | 1.221 ± 0.026
328.15 K, x1 = 0.8991 | 841.86 ± 1 | –
328.15 K, x1 = 0.9004 | – | 1.391 ± 0.03
328.15 K, x1 = 1 | 883.84 ± 1 | 1.646 ± 0.035
333.15 K, x1 = 0.1039 | – | 0.794 ± 0.017
333.15 K, x1 = 0.1135 | 724.62 ± 1 | –
333.15 K, x1 = 0.2032 | – | 0.806 ± 0.017
333.15 K, x1 = 0.2127 | 730.75 ± 1 | –
333.15 K, x1 = 0.3022 | – | 0.823 ± 0.018
333.15 K, x1 = 0.3059 | 737.68 ± 1 | –
333.15 K, x1 = 0.3804 | 744.17 ± 1 | –
333.15 K, x1 = 0.3997 | – | 0.843 ± 0.018
333.15 K, x1 = 0.4993 | – | 0.896 ± 0.019
333.15 K, x1 = 0.5067 | 757.64 ± 1 | –
333.15 K, x1 = 0.5994 | – | 0.948 ± 0.02
333.15 K, x1 = 0.6019 | 770.44 ± 1 | –
333.15 K, x1 = 0.7 | – | 1.018 ± 0.022
333.15 K, x1 = 0.7011 | 787.11 ± 1 | –
333.15 K, x1 = 0.7921 | 806.7 ± 1 | –
333.15 K, x1 = 0.797 | – | 1.111 ± 0.024
333.15 K, x1 = 0.8991 | 837.56 ± 1 | –
333.15 K, x1 = 0.9004 | – | 1.257 ± 0.027
333.15 K, x1 = 1 | 879.49 ± 1 | 1.476 ± 0.032
338.15 K, x1 = 0.1039 | – | 0.745 ± 0.016
338.15 K, x1 = 0.1135 | 720.77 ± 1 | –
338.15 K, x1 = 0.2032 | – | 0.755 ± 0.016
338.15 K, x1 = 0.2127 | 726.81 ± 1 | –
338.15 K, x1 = 0.3022 | – | 0.769 ± 0.016
338.15 K, x1 = 0.3059 | 733.68 ± 1 | –
338.15 K, x1 = 0.3804 | 740.12 ± 1 | –
338.15 K, x1 = 0.3997 | – | 0.785 ± 0.017
338.15 K, x1 = 0.4993 | – | 0.831 ± 0.018
338.15 K, x1 = 0.5067 | 753.5 ± 1 | –
338.15 K, x1 = 0.5994 | – | 0.875 ± 0.019
338.15 K, x1 = 0.6019 | 766.25 ± 1 | –
338.15 K, x1 = 0.7 | – | 0.935 ± 0.02
338.15 K, x1 = 0.7011 | 782.85 ± 1 | –
338.15 K, x1 = 0.7921 | 802.39 ± 1 | –
338.15 K, x1 = 0.797 | – | 1.015 ± 0.022
338.15 K, x1 = 0.8991 | 833.19 ± 1 | –
338.15 K, x1 = 0.9004 | – | 1.141 ± 0.024
338.15 K, x1 = 1 | 875.07 ± 1 | 1.328 ± 0.028
343.15 K, x1 = 0.1039 | – | 0.702 ± 0.015
343.15 K, x1 = 0.1135 | 716.91 ± 1 | –
343.15 K, x1 = 0.2032 | – | 0.709 ± 0.015
343.15 K, x1 = 0.2127 | 722.85 ± 1 | –
343.15 K, x1 = 0.3022 | – | 0.721 ± 0.015
343.15 K, x1 = 0.3059 | 729.64 ± 1 | –
343.15 K, x1 = 0.3804 | 736.03 ± 1 | –
343.15 K, x1 = 0.3997 | – | 0.734 ± 0.016
343.15 K, x1 = 0.4993 | – | 0.773 ± 0.017
343.15 K, x1 = 0.5067 | 749.32 ± 1 | –
343.15 K, x1 = 0.5994 | – | 0.811 ± 0.017
343.15 K, x1 = 0.6019 | 762 ± 1 | –
343.15 K, x1 = 0.7 | – | 0.862 ± 0.018
343.15 K, x1 = 0.7011 | 778.54 ± 1 | –
343.15 K, x1 = 0.7921 | 798.03 ± 1 | –
343.15 K, x1 = 0.797 | – | 0.931 ± 0.02
343.15 K, x1 = 0.8991 | 828.77 ± 1 | –
343.15 K, x1 = 0.9004 | – | 1.039 ± 0.022
343.15 K, x1 = 1 | 870.62 ± 1 | 1.201 ± 0.026

From the NIST ThermoML archive (doi:10.1021/acs.jced.7b00201)
